In patent US20060276464A1, “Diarylsulfone sulfonamides and use thereof” (Wyeth, priority 2005, published 2006):
Like-named read-outs stand apart in the source and are kept apart here.

Biological target: T1, SFRP-1 (Homo sapiens, UniProt Q8N474)
T1 sequence (Q8N474 32-314): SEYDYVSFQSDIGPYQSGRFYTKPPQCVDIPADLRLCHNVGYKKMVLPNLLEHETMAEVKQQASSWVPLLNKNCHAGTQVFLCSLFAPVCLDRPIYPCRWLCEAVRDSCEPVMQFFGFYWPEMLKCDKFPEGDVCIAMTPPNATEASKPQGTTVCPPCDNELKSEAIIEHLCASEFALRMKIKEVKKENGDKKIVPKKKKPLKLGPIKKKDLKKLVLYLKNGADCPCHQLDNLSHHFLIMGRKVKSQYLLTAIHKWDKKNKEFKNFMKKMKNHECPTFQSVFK
Assay: Cell-based assay for in vitro measurement of SFRP-1/SARP2 antagonist activity (U2OS cells co-transfected with 16x TCF-tk-Luciferase reporter, Wnt and hSFRP-1);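 note: U2OS cells co-transfected with a TCF-tk luciferase reporter, a Wnt vector, hSFRP-1 or empty vector and CMV-βgal, luciferase luminescence read in cell lysates alongside βgal activity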
Details: U2OS

[1] = read-out: Fold Induction with SFRP-1, Conc 15 μM, with SFRP-1, fold induction over SFRP-1 control, single dose
[2] = read-out: Fold Induction without SFRP-1, Conc 15 μM, without SFRP-1, single dose

fold induction at 15 µM [1]	fold induction at 15 µM [2]	fold induction at 60 µM (read-out: Fold Induction with SFRP-1, Conc 60 μM, with SFRP-1, fold induction over SFRP-1 control, single dose)	fold induction at 60 µM (read-out: Fold Induction without SFRP-1, Conc 60 μM, without SFRP-1, single dose)	Structure (SMILES)
1.2	0.9			Cc1ccc(S(=O)(=O)c2ccc(C(C)(O)c3ccccc3)cc2)cc1S(=O)(=O)NCCc1ccccn1 (stereo not shown) [Example 407, 5-{[4-(1-hydroxy-1-phenylethyl)phenyl]sulfonyl}-2-methyl-N-(2-pyridin-2-ylethyl)benzenesulfonamide]
1.2	1			Cc1ccc(S(=O)(=O)c2ccc(C(C)(O)Cc3ccccc3)cc2)cc1S(=O)(=O)NCCc1ccccn1 (stereo not shown) [Example 408, 5-{[4-(1-hydroxy-1-methyl-2-phenylethyl)phenyl]sulfonyl}-2-methyl-N-(2-pyridin-2-ylethyl)benzenesulfonamide]
2.7	1.3			Cc1ccc(S(=O)(=O)c2cccc3ccccc23)cc1S(=O)(=O)NCCc1ccccn1 [Example 410, 2-methyl-5-(1-naphthylsulfonyl)-N-(2-pyridin-2-ylethyl)benzenesulfonamide]
1.9	0.9			Cc1ccc(S(=O)(=O)c2cccc(O)c2)cc1S(=O)(=O)NCCc1ccccn1 [Example 416, 5-[(3-hydroxyphenyl)sulfonyl]-2-methyl-N-(2-pyridin-2-ylethyl)benzenesulfonamide]
1.3	0.8			Cc1ccc(S(=O)(=O)c2ccc(C#N)cc2)cc1S(=O)(=O)NCCc1ccccn1 [Example 428, 5-[(4-cyanophenyl)sulfonyl]-2-methyl-N-(2-pyridin-2-ylethyl)benzenesulfonamide]
1.7	0.8			Cc1ccc(S(=O)(=O)c2ccccc2C)cc1S(=O)(=O)NCCc1ccccn1 [Example 430, 2-methyl-5-[(2-methylphenyl)sulfonyl]-N-(2-pyridin-2-ylethyl)benzenesulfonamide]
1.7	0.8			CCc1ccccc1S(=O)(=O)c1ccc(C)c(S(=O)(=O)NCCc2ccccn2)c1 [Example 431, 5-[(2-ethylphenyl)sulfonyl]-2-methyl-N-(2-pyridin-2-ylethyl)benzenesulfonamide]
1.9	0.9			Cc1ccc(S(=O)(=O)c2ccccc2-c2ccccc2)cc1S(=O)(=O)NCCc1ccccn1 [Example 432, 5-(biphenyl-2-ylsulfonyl)-2-methyl-N-(2-pyridin-2-ylethyl)benzenesulfonamide]
2.5	1.1			Cc1ccc(S(=O)(=O)c2ccc(-c3ccccc3)cc2)cc1S(=O)(=O)NCCc1ccccn1 [Example 433, 5-(biphenyl-4-ylsulfonyl)-2-methyl-N-(2-pyridin-2-ylethyl)benzenesulfonamide]
2.1	1.1			Cc1ccc(S(=O)(=O)c2cccc(-c3ccccc3)c2)cc1S(=O)(=O)NCCc1ccccn1 [Example 434, 5-(biphenyl-3-ylsulfonyl)-2-methyl-N-(2-pyridin-2-ylethyl)benzenesulfonamide]
1.6	1			Cc1ccc(S(=O)(=O)c2ccc(C(C)(C)C)cc2)cc1S(=O)(=O)NCCc1ccccn1 [Example 438, 5-[(4-tert-butylphenyl)sulfonyl]-2-methyl-N-(2-pyridin-2-ylethyl)benzenesulfonamide]

The next lines start with the molecule.

Structure (SMILES)	fold induction at 15 µM [1]	fold induction at 15 µM [2]	fold induction at 60 µM (read-out: Fold Induction with SFRP-1, Conc 60 μM, with SFRP-1, fold induction over SFRP-1 control, single dose)	fold induction at 60 µM (read-out: Fold Induction without SFRP-1, Conc 60 μM, without SFRP-1, single dose)
Cc1ccc(S(=O)(=O)c2ccccc2)cc1S(=O)(=O)NCC(F)(F)F [Example 401, 2-methyl-5-(phenylsulfonyl)-N-(2,2,2-trifluoroethyl)benzenesulfonamide]	1.6	1.1		
CC(=O)c1ccc(S(=O)(=O)c2ccc(C)c(S(=O)(=O)NCCc3ccccn3)c2)cc1 [Example 403, 5-[(4-acetylphenyl)sulfonyl]-2-methyl-N-(2-pyridin-2-ylethyl)benzenesulfonamide]	2.5	1.1		
Cc1ccc(S(=O)(=O)c2ccccc2)cc1S(=O)(=O)NC(C)(C)CO [Example 404, N-(2-hydroxy-1,1-dimethylethyl)-2-methyl-5-(phenylsulfonyl)benzenesulfonamide]	1.2	1.1		
Cc1ccc(S(=O)(=O)c2ccc(C(C)(C)O)cc2)cc1S(=O)(=O)NCCc1ccccn1 [Example 405, 5-{[4-(1-hydroxy-1-methylethyl)phenyl]sulfonyl}-2-methyl-N-(2-pyridin-2-ylethyl)benzenesulfonamide]	2.1	1.1		
Cc1ccc(S(=O)(=O)c2ccc(C(C)(O)C3CCCCC3)cc2)cc1S(=O)(=O)NCCc1ccccn1 (stereo not shown) [Example 406, 5-{[4-(1-cyclohexyl-1-hydroxyethyl)phenyl]sulfonyl}-2-methyl-N-(2-pyridin-2-ylethyl)benzenesulfonamid]			1.2	0.9
Cc1ccc(S(=O)(=O)c2cccc(C#N)c2)cc1S(=O)(=O)NCCc1ccccn1 [Example 409, 5-[(3-cyanophenyl)sulfonyl]-2-methyl-N-(2-pyridin-2-ylethyl)benzenesulfonamide]	2.2	1.3		
Cc1ccc(S(=O)(=O)c2ccccc2)cc1S(=O)(=O)NC1CC(C)(C)NC(C)(C)C1 [Example 411, 2-methyl-5-(phenylsulfonyl)-N-(2,2,6,6-tetramethylpiperidin-4-yl)benzenesulfonamide]	1.6	1		
Cc1ccc(S(=O)(=O)c2ccccc2)cc1S(=O)(=O)NC1CCN(Cc2ccccc2)C1 (stereo not shown) [Example 414, N-(1-benzylpyrrolidin-3-yl)-2-methyl-5-(phenylsulfonyl)benzenesulfonamide]	2	1.3		
Cc1ccc(S(=O)(=O)c2ccccc2)cc1S(=O)(=O)NC1CCc2ccccc21 (stereo not shown) [Example 415, N-(2,3-dihydro-1H-inden-1-yl)-2-methyl-5-(phenylsulfonyl)benzenesulfonamide]	1.5	1.2		
Cc1ccc(S(=O)(=O)c2cc(F)cc(F)c2)cc1S(=O)(=O)NCCc1ccccn1 [Example 417, 5-[(3,5-difluorophenyl)sulfonyl]-2-methyl-N-(2-pyridin-2-ylethyl)benzenesulfonamide]	1.8	1		
CC(=O)c1cccc(S(=O)(=O)c2ccc(C)c(S(=O)(=O)NCCc3ccccn3)c2)c1 [Example 419, 5-[(3-acetylphenyl)sulfonyl]-2-methyl-N-(2-pyridin-2-ylethyl)benzenesulfonamide]	2.5	1.3		
Cc1ccc(S(=O)(=O)c2ccccc2)cc1S(=O)(=O)NC1CC1 [Example 424, N-cyclopropyl-2-methyl-5-(phenylsulfonyl)benzenesulfonamide]	2.1	1.2		
Cc1ccc(S(=O)(=O)c2cccnc2)cc1S(=O)(=O)NCCc1ccccn1 [Example 426, 2-methyl-N-(2-pyridin-2-ylethyl)-5-(pyridin-3-ylsulfonyl)benzenesulfonamide]	1.3	0.8		
CCS(=O)(=O)c1cccc(S(=O)(=O)c2ccc(C)c(S(=O)(=O)NCCc3ccccn3)c2)c1 [Example 429, 5-{[3-(ethylsulfonyl)phenyl]sulfonyl}-2-methyl-N-(2-pyridin-2-ylethyl)benzenesulfonamide]	0.9	0.8		
CC(C)c1ccc(S(=O)(=O)c2ccc(F)cc2)cc1S(=O)(=O)NC[C@@H](C)c1ccccc1 [Example 444, 5-[(4-fluorophenyl)sulfonyl]-2-isopropyl-N-[(2S)-2-phenylpropyl]benzenesulfonamide]	1.4	1.1		
Cc1ccc(S(=O)(=O)c2ccccc2)cc1S(=O)(=O)NC1CCNCC1 [Example 447, 2-methyl-5-(phenylsulfonyl)-N-piperidin-4-ylbenzenesulfonamide]	3	1.1		
CNc1ccc(S(=O)(=O)c2ccc(C(C)C)c(S(=O)(=O)NCCn3ccnc3)c2)cc1 [Example 451, N-[2-(1H-imidazol-1-yl)ethyl]-2-isopropyl-5-{[4-(methylamino)phenyl]sulfonyl)benzenesulfonamide]	3.7	1.1		
Cc1cc(C)cc(S(=O)(=O)c2ccc(C(C)C)c(S(=O)(=O)NCCc3ccccn3)c2)c1 [Example 454, 5-[(3,5-dimethylphenyl)sulfonyl]-2-isopropyl-N-(2-pyridin-2-ylethyl)benzenesulfonamide]	1.7	1.1		
CC(C)c1ccc(S(=O)(=O)c2cc(F)cc(F)c2)cc1S(=O)(=O)NCCc1ccccn1 [Example 458, 5-[(3,5-difluorophenyl)sulfonyl]-2-isopropyl-N-(2-pyridin-2-ylethyl)benzenesulfonamide]	2.9	0.9		
O=S(=O)(NCCc1ccccn1)c1cc(S(=O)(=O)c2ccccc2)ccc1C1CCCCC1 [Example 459, 2-cyclohexyl-5-(phenylsulfonyl)-N-(2-pyridin-2-ylethyl)benzenesulfonamide]	1.6	0.9		
O=S(=O)(NCCc1ccccn1)c1cc(S(=O)(=O)c2ccc(F)cc2)ccc1C1CCCCC1 [Example 460, 2-cyclohexyl-5-[(4-fluorophenyl)sulfonyl]-N-(2-pyridin-2-ylethyl)benzenesulfonamide]	1.1	1		
